One series has as its target Cytochrome P450 3A4 (Homo sapiens, UniProt P08684).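 Note: CYP3A4 tested as one member of a cytochrome P450 panel screen.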
A short description of series [1]: inhibitors of PGC1a acetylation in cells, dose response, cell-based, cherry-picked samples (AID 720514).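 Note: potency may reflect raised or lowered acetylation signal.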 Format: functional.
In another series the target is Cytochrome P450 2C9 (Homo sapiens, UniProt P11712).
Series [2] is described as follows: non-specific cell cytotoxicity, dose response, cytotoxicity control for PAX8 inhibitor project, plate reader, dry powder samples (AID 743021). It counts as functional, cell-based.
Series [3] is described as follows: NIH:OVCAR-3 ovarian cancer cell cytotoxicity, dose response, PAX8 inhibitor project, plate reader, dry powder samples (AID 743044). It counts as functional, cell-based.
The nature of series [4]: IOSE-T80 ovarian epithelial cell cytotoxicity, dose response, cytotoxicity control for PAX8 inhibitor project, plate reader, dry powder samples (AID 743045). Format: functional, cell-based.
Series [5] is described as follows: IGROV1 ovarian cancer cell cytotoxicity, dose response, PAX8 inhibitor project, plate reader, dry powder samples (AID 743043). Format: functional, cell-based. To be noted: IGROV-1.
Series [6] can be described thus: cytotoxicity in OVCAR8 ovarian cancer cells, dose response, PAX8 project, cell-based, plate reader, dry powder samples (AID 743197). The following applies: OVCAR-8. It counts as functional.
The nature of series [7]: A2780 ovarian cancer cell cytotoxicity, dose response, cytotoxicity control, plate reader, dry powder samples (AID 743046). Format: functional, cell-based.
For another series, the target named is Paired box protein Pax-8 (Homo sapiens, UniProt Q06710). As to the kind of experiment: inhibitors of PAX8-driven TPO luciferase reporter, dose response, RMG-I cells, cherry-pick (AID 687027).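 Note: luciferase reporter driven by Pax8 target thyroperoxidase promoter measured by SteadyGlo luminescence.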 Format: functional, cell-based. For orientation: In a reporter assay the amount or activity of a reporter protein is the signal.
Series [8] is described as follows: C. albicans growth with fluconazole, confirmation, fluorescence, retest (AID 2467). It counts as functional, cell-based.
Series [9] can be described thus: NIH-3T3 fibroblast cytotoxicity, dose response, cytotoxicity control, cell-based, fluorescence, Alamar Blue, secondary assay (AID 2327).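 Note: NIH-3T3 mouse fibroblasts cultured with fluconazole at 8 µg/mL.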 Format: functional.
The target in series [10] is Voltage-gated inwardly rectifying potassium channel KCNH2 (Homo sapiens, UniProt Q12809). The series can be described thus: hERG protection from proarrhythmic block, potency, dose response, cell-based, thallium flux (AID 2121). It counts as ADME. Background: The hERG channel carries a current that helps repolarise heart muscle cells.
Another series deals with Beta-galactosidase (Escherichia coli, UniProt Q8VNN2). The series can be described thus: beta-galactosidase enzyme inhibitors and activators, dose response, artefact control for CCR6 antagonist project, biochemical, E. coli enzyme, set 3 (AID 504712). It counts as functional.
Series [11] can be described thus: human group III sPLA2 inhibitors, dose response, biochemical, QFRET, IC50 (AID 743457).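 Note: green fluorescence rise as the enzyme cleaves BODIPY PC-A2 in liposomes; potency for inhibition of the enzyme.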
Series [12] can be described thus: Luminescence Cell-Based Dose Confirmation HTS to Identify Inhibitors of Platelet Dense Granule Release. [Related pubchem assays: 1663 (Primary HTS), 1678 (Summary of Project)]. It counts as functional.
The nature of series [13]: Luminescence-based counterscreen assay for KLF5 inhibitors: dose response cell-based high throughput screening assay to identify cytotoxic compounds using the IEC-6 intestinal epithelial cell line. [Related pubchem assays: 1700 (Primary screen.), 1834 (Confirmation screen.), 1858 (Summary AID.), 1905 (Counterscreen.)]. It counts as functional. In general terms: A counterscreen serves to expose hits that act by an unwanted route or on another target.

Series [14] concerns the target COUP transcription factor 2 (Homo sapiens, UniProt P24468). As to the kind of experiment: Luminescence-based cell-based high throughput dose response assay to identify inhibitors of COUP-TFII (NR2F2). Format: functional.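 Note: HEK293 cells transiently cotransfected with COUP-TFII expression vector and reporter; luciferase reporter luminescence driven by COUP-TFII from the pX2-168 reporter plasmid.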
The target of series [15] is Luciferin 4-monooxygenase (Photinus pyralis, UniProt P08659). As to the kind of experiment: firefly luciferase enzyme inhibitors, dose response, biochemical, luminescence (AID 1891).
The target in a further series is Prothrombin (Homo sapiens, UniProt P00734). The series can be described thus: Thrombin 1536 HTS Dose Response Confirmation. [Related pubchem assays: 1046 (Thrombin 1536 HTS; hits were confirmed in this assay)]. It counts as functional.
The next series concerns INS1. As to the kind of experiment: beta cell apoptosis inhibitors, cytokine rescue, dose response, luminescence, retest (AID 449756).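 Note: cell death triggered by IL-1 beta plus TNF-alpha plus IFN-gamma mixture; protective hits raise ATP signal compared with cytokine alone wells.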 Format: functional, cell-based. To be noted: Rattus norvegicus, INS1.
Series [16] relates to HEK293. As to the kind of experiment: cells. Format: functional, cell-based. The following applies: Homo sapiens.
Series [17] is described as follows: HepG2 cell cytotoxicity, dose response, cytotoxicity control for Shn3 inhibitor project, CellTiter-Glo, cherry-picked (AID 624134). Format: functional, cell-based.
Series [18] relates to HEK293. The series can be described thus: NOD2 signaling inhibitors in MDP-stimulated cells, cell-based, uHTS, luminescence (AID 2001). It counts as functional. To be noted: Homo sapiens.
Series [19] can be described thus: Shn3 3'UTR reporter inhibitors, dose response, cell-based, Clone20 osteoblasts, firefly luciferase, cherry-picked (AID 624132).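 Note: firefly luciferase luminescence from reporter carrying the Shn3 3'UTR in osteoblasts.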 It counts as functional.
The target of series [20] is Nucleotide-binding oligomerization domain-containing protein 2 (Homo sapiens, UniProt Q9HC29). The series can be described thus: NOD2 signaling inhibitors, cell-based, luminescence, uHTS, HEK293 (AID 1566). It counts as functional.
Series [21] has as its system HEK293. As to the kind of experiment: cells. It counts as functional, cell-based. To be noted: Homo sapiens. This is another data set of the same source.
Series [22] can be described thus: reduction of Shn3 3'UTR firefly luciferase signal, dose response, Schnurri-3 inhibitor project, cell-based, Clone20 osteoblasts, cherry-pick, set 2 (AID 720490).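 Note: actives lower the luminescence signal as inhibitors.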 Format: functional.
The test system of series [23] is HEK293. As to the kind of experiment: cells. Format: functional, cell-based. To be noted: Homo sapiens. The source holds these as a separate data set.
Series [24] deals with HEK293. The series can be described thus: NOD1 signaling inhibitors, primary screen, cell-based, luminescence, uHTS (AID 1578). Format: functional. To be noted: Homo sapiens.
A short description of series [25]: Luminescence Cell-Based Dose Retest to Confirm Inhibitors of Cancer Stem Cells. [Related pubchem assays (depositor defined):AID2717, AID2721]. To be noted: Homo sapiens. Format: functional.
The next series deals with A-375. As to the kind of experiment: A375 melanoma cell viability reduction, dose response, counter-screen for MITF modulator project, cherry-pick samples, set 2 (AID 540335). It counts as functional, cell-based. The following applies: Homo sapiens.
Series [26] deals with T1, Microphthalmia-associated transcription factor (Homo sapiens, UniProt O75030).
T1 sequence (O75030 whole entry): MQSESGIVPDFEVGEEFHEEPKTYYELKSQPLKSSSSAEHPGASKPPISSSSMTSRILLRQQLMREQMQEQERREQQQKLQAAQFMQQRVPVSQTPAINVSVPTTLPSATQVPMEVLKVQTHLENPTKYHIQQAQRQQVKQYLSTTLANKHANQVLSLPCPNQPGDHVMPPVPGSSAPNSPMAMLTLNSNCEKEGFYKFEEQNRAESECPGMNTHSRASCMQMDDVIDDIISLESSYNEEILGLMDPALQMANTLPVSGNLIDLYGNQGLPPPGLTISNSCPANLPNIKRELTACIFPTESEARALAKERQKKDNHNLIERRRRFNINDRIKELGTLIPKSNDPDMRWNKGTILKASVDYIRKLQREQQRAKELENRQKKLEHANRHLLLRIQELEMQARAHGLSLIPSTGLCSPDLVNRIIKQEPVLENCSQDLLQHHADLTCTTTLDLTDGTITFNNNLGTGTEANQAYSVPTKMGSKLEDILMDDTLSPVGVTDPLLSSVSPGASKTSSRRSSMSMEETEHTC
As to the kind of experiment: TRPM1 promoter luciferase signal decrease, dose response, MITF inhibitor project, cell-based, SK-MEL-5, cherry-picked, set 3 (AID 493073).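 Note: SK-MEL-5 melanoma cells with luciferase driven by the MITF target TRPM1 promoter.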 Format: functional.

Series [27] in a line: MC4R antagonists, dose response, counter-screen for LGR2 antagonist project, cell-based, plate reader, cherry pick (AID 743444).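 Note: transfected HEK 293 cells stimulated with alpha-MSH peptide; potency of inhibitors of the alpha-MSH evoked signal.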 It counts as functional.
Series [28] in a line: HepG2 cell cytotoxicity, dose response, cytotoxicity control, plate reader, cherry-pick, antagonist series (AID 743416). Format: functional, cell-based.
Series [29] in a line: HEK293 cell cytotoxicity, dose response, cytotoxicity control, plate reader, cherry-picked samples (AID 743446). Format: functional, cell-based.
Series [30] in a line: A549 cell cytotoxicity, dose response, cytotoxicity control, plate reader, cherry-pick, antagonist series (AID 743412). Format: functional, cell-based.
Series [31] in a line: LGR2 antagonists, dose response, cell-based, HEK293, CRE-luciferase reporter, cherry pick, set 2 (AID 743343).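 Note: transfected cells were stimulated with diluted bursicon conditioned medium after compound addition.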 It counts as functional.
Series [32] is described as follows: control 3'UTR Renilla luciferase suppression, dose response, counter-screen for Shn3 inhibitor project, cell-based, Clone20-Shn3RL, cherry-picked (AID 624133). It counts as functional.

Each structure is given as a SMILES string. The source made the active and inactive calls. A value given as a limit tells only on which side of the number the result lay.

Paired box protein Pax-8, sequence (Q06710 whole entry): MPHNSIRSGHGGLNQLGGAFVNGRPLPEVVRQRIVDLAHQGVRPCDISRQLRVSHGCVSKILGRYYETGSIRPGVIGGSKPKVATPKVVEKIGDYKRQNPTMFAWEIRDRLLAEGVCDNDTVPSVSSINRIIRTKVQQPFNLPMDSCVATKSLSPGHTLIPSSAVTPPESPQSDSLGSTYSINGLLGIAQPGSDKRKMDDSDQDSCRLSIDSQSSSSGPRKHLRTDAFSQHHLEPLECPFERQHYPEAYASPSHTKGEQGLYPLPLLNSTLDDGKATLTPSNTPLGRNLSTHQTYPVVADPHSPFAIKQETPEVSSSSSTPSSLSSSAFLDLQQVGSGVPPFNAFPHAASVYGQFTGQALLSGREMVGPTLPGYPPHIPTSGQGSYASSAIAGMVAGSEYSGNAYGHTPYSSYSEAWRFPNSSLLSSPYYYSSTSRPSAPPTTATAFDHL
Voltage-gated inwardly rectifying potassium channel KCNH2, sequence (Q12809 whole entry): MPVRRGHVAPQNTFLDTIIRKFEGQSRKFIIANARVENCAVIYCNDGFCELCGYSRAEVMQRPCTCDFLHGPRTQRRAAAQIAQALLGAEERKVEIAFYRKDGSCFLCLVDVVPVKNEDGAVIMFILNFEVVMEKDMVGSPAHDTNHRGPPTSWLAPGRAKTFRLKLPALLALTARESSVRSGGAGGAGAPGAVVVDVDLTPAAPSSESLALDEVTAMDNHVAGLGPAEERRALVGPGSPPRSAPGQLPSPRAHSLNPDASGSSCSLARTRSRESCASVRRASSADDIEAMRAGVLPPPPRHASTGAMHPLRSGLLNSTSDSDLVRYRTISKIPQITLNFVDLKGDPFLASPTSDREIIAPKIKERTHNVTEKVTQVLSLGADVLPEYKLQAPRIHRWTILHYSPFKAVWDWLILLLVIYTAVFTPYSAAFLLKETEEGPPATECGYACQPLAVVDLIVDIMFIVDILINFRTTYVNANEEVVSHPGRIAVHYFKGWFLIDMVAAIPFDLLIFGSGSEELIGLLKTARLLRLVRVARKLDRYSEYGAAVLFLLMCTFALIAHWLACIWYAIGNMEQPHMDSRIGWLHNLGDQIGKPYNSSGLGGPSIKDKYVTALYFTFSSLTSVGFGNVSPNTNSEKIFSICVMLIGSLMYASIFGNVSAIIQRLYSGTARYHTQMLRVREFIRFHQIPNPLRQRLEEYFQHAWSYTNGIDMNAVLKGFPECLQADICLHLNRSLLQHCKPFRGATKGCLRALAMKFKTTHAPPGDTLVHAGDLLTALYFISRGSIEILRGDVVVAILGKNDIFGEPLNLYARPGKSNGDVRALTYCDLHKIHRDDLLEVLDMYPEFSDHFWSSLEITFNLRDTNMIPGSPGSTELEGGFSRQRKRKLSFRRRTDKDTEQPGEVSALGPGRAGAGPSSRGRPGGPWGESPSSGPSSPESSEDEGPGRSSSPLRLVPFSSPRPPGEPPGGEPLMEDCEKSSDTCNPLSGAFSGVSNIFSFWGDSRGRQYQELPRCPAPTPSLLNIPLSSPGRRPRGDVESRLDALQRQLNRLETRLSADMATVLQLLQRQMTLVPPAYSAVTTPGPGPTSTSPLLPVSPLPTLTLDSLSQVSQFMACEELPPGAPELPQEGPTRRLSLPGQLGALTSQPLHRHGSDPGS
Cytochrome P450 2C9, sequence (P11712 whole entry): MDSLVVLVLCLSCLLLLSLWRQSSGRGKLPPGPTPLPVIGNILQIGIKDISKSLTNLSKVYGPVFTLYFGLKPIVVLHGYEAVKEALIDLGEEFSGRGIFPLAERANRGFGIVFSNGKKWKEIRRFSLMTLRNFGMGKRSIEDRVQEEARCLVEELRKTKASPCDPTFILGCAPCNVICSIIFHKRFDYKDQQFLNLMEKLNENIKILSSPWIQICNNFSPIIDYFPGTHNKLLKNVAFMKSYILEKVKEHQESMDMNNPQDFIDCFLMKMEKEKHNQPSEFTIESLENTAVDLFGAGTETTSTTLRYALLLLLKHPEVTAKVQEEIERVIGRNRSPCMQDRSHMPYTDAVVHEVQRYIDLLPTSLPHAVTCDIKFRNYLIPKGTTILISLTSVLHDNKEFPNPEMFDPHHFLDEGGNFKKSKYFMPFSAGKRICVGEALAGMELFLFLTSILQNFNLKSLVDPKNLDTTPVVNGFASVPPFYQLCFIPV
COUP transcription factor 2, sequence (P24468 whole entry): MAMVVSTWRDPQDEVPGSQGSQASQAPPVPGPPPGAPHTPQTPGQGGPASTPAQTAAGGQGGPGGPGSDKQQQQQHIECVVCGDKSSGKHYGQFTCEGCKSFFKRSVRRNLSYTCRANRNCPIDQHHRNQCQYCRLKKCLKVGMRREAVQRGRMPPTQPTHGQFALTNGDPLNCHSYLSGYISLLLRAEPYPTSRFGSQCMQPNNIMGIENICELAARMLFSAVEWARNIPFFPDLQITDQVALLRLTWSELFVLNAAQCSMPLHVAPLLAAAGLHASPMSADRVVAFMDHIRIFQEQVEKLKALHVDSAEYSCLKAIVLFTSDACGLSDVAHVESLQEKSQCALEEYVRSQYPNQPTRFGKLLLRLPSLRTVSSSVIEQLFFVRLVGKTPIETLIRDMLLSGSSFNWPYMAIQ
Beta-galactosidase, sequence (Q8VNN2 whole entry): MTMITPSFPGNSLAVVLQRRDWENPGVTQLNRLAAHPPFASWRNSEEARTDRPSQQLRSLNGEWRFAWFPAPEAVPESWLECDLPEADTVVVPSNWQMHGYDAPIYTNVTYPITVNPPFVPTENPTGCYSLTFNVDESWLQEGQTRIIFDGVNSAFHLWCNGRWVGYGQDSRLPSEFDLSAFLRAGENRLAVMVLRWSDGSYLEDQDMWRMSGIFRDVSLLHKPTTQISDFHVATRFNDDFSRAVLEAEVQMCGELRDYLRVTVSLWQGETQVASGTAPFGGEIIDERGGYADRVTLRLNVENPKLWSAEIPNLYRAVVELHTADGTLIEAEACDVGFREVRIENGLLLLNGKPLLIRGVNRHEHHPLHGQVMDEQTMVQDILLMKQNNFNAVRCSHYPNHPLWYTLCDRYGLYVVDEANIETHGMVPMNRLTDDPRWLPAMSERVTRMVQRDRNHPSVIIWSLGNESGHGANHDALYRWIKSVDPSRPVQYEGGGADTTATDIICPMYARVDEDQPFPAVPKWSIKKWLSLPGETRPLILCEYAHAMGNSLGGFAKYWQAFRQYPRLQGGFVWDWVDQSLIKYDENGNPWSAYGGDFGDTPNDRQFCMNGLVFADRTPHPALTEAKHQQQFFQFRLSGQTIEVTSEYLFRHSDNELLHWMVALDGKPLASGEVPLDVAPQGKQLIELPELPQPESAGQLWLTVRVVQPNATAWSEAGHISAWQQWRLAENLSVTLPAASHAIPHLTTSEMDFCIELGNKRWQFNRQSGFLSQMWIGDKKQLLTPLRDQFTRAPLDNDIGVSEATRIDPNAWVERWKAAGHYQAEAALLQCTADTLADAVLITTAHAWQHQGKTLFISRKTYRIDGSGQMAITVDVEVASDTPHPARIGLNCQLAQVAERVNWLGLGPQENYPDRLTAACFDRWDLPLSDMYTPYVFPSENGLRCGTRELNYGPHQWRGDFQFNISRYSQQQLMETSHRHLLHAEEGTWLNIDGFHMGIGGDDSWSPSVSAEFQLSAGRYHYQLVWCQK
Luciferin 4-monooxygenase, sequence (P08659 whole entry): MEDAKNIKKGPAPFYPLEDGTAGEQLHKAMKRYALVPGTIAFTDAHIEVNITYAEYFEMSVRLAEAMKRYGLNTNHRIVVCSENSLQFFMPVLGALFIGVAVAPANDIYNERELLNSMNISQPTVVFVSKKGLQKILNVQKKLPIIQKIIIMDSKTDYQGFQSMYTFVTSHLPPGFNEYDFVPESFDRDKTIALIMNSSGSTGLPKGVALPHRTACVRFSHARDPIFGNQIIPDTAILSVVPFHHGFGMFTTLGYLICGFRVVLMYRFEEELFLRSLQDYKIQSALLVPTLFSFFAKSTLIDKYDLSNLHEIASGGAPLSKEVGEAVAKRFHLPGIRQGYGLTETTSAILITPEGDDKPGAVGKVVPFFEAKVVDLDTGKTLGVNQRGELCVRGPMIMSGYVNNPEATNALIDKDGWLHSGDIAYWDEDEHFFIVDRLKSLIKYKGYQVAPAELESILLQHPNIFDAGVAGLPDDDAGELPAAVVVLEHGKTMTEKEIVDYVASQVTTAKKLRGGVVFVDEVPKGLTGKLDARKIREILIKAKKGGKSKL
Cytochrome P450 3A4, sequence (P08684 whole entry): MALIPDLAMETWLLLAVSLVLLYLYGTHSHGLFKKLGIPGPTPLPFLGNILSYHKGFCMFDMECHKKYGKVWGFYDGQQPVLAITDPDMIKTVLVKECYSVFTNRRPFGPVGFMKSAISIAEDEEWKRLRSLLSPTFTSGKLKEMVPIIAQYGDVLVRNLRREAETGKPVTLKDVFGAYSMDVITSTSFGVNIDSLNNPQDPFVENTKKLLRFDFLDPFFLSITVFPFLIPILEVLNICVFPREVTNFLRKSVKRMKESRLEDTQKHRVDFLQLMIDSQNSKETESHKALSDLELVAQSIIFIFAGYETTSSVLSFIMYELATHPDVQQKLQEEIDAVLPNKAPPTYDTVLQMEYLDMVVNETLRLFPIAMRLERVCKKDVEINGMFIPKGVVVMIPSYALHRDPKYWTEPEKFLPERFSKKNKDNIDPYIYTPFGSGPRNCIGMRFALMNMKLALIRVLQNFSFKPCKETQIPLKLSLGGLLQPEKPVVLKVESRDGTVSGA

Regarding `CCc1ccc(C(=O)CN(C#N)c2nc(C)cc(C)n2)cc1`, the AC50 was 25.1 µM (inconclusive) on Cytochrome P450 3A4, 19.3 µM (active) in [1] and “inconclusive” on Cytochrome P450 2C9.

For `C[C@H](CO)N1C[C@H](C)[C@@H](CN(C)C(=O)Nc2ccc3c(c2)OCO3)Oc2cc(C#Cc3ccncc3)ccc2S1(=O)=O`, the AC50 in series [2] was 47.5 µM (active); in series [3], 5.21 µM (active); in [4] it was 5.8 µM (active); in series [5], 13.7 µM (active); in [6], 8.81 µM (active); in series [7] it was 10.9 µM (active). Further, the AC50 on Paired box protein Pax-8 was 3.02 µM (active).

Regarding `CCOc1ccc2nc(N3C(=O)/C(=C/c4ccccc4)NC3=S)sc2c1`, the results for the EC50 in series [8], in series [9] and in series [10] were 3.03 µM (active), > 150 µM (inconclusive) and 0.44 µM (active), respectively.

Take `O=C(NC(=S)Nc1ccccc1N1CCCC1)c1ccc([N+](=O)[O-])cc1`: the IC50 at Beta-galactosidase is > 66.6 µM (inactive); in series [11] it was 44.6 µM (inactive). Further, in series [10], the EC50 was 3.24 µM (active).

Consider `CCCc1ccc(C(=O)O/N=C(\N)c2ccccn2)cc1`, for which the values for the EC50 in series [12] and in series [15] were 1.2 µM (active) and 0.407 µM (active), respectively. Besides, the values for the IC50 in series [13] and in series [14] were 27.8 µM (not active) and 22.1 µM (inactive), respectively. Besides, at Paired box protein Pax-8, the AC50 was 5.93 µM (active).

In the case of `C=CCn1cc(C(=O)NCc2ccc3c(c2)OCO3)c(=O)c2cc(S(=O)(=O)N(CC)CC)ccc21`, at Prothrombin, the IC50 is 19.2 µM (active).

`COc1ccc(CC(=O)Nc2ccncc2Cl)cc1`: the AC50 with INS1 is 5.67 µM (active); in [17] it was 57.3 µM (active); in [19] it was 2.12 µM (active); in [22], 2.13 µM (active). For the same compound, the IC50 is > 20 µM (inactive) in the series on HEK293 [16], 17.8 µM (inactive) with HEK293 [18], > 20 µM (inactive) with HEK293 [21] and 14 µM (active) with HEK293 [23]. Moreover, the EC50 is 14.9 µM (active) in [20] and 4.73 µM (active) in the series with HEK293 [24].

For `Cc1ccc(S(=O)(=O)N2CCCCC2)cc1NC(=O)Cn1ncc(Cl)c(Cl)c1=O`, the AC50 in series [25] is 2.6 µM (active); in the series on A-375, 23.7 µM (active); in [17], 23.5 µM (active); in [19], 4.32 µM (active); in [26], 6.21 µM (active); in [27], 17.5 µM (active). In addition, the AC50 in series [28] was 10.4 µM (active); in series [29] it was 7.53 µM (active); in series [30], 9.07 µM (active); in series [31] it was 17.9 µM (active); on Paired box protein Pax-8 it was 4.3 µM (active); in [32], 8.36 µM (active).

The term AC50 denotes the concentration at which the activity in the assay is half-maximal. Usually EC50 stands for the midpoint of the concentration-response curve. For orientation: IC50 means the point on the concentration scale where inhibition reaches its midpoint.

(Values after ChEMBL document CHEMBL1201862, “PubChem BioAssay data set” (2004).)
